The record followed here is PMC11609934, “Exploration and characterization of the antimalarial activity of cyclopropyl carboxamides that target the mitochondrial protein, cytochrome b” (European Journal of Medicinal Chemistry, 2024).

Where two headings read alike, the source gives them in different places.

Data set [1] concerns P. falciparum 3D7 parasites. Briefly: P. falciparum 3D7 asexual stage LDH assay (72 h). Format: cell-based, Plasmodium falciparum. The note with it: for EC50: Plasmodium falciparum, 3D7, 72 h, means and SDs, three or more experiments; for fold decrease in Pf 3D7 activity relative to 17: ratio of EC50 to compound 17; for fold loss in Pf 3D7 activity relative to W499 (2): carboxamide variants versus cyclopropyl parent. How it is done: To establish the SAR, synthesized analogs were assessed against the asexual stage parasite (72 h) using LDH as a proxy for parasite growth inhibition. Cytotoxicity was monitored against the human HepG2 cell line using Cell TitreGlo as a metabolic marker for cell growth.
P. falciparum 3D7 Asexual Stage LDH Assay. This is a platform assay is routinely undertaken at the Walter and Eliza Hall Institute and details on the protocol has been previously published. Briefly, 10-point dilution series of the compounds were prepared in 384 well assay plates using an Echo555 (Labcyte). Appropriate volumes of 10 mM compound stocks were transferred into the assay plates such that the starting concentration was 1 μM, with a 1 in 3-fold dilution series. All wells were backfilled with DMSO to 40 nL such that this remained constant (0.1 % DMSO). The positive growth control was 0.1 % DMSO and the negative growth control was 100 nM chloroquine. The parasite inoculum (40 μL) was dispensed into plates containing compounds using a Multidrop Combi dispenser (Thermo Scientific). […] Following 72 h growth, plates were sealed with parafilm and frozen at −80 °C overnight. Plates were thawed at room temperature for at least 4 h prior to LDH activity being measured. […] Plates were shaken to ensure mixing and absorbance at 650 nm was measured in an EnVision (PerkinElmer) plate reader after 30 min of incubation at room temperature. […] The equation used is sigmoidal dose response (variable slope), Y = bottom + (top − bottom)/(1 + 10((logEC50 − X) × Hill Slope)).

Data set [2] can be described thus: Human HepG2 growth inhibition assay (Cell TitreGlo, 48 h). Format: cell-based. The note with it: human, HepG2 cells, HepG2 cell growth inhibition over 48 h. On the procedure:
To establish the SAR, synthesized analogs were assessed against the asexual stage parasite (72 h) using LDH as a proxy for parasite growth inhibition. Cytotoxicity was monitored against the human HepG2 cell line using Cell TitreGlo as a metabolic marker for cell growth. Cyt b inhibitors typically have high lipophilicity, and so calculated physicochemical properties were determined, while in vitro ADME was also collected on representative analogs to gauge their suitability for efficacy studies in a 4-day P. berghei model.
Human HepG2 Growth Inhibition Assay. This is a routine assay undertaken at the Walter and Eliza Hall Institute and the method has been previously published. HepG2 cells were cultured in Dulbeccos modified eagles medium (DMEM) supplemented with 10 % fetal calf serum (FCS), in a humidified incubator at 37 °C and 5 % CO2. Assay plates (Greiner #781098, 384 well, white, tissue culture treated) were prepared by transferring appropriate volumes of 10 mM compound stocks using an Echo555 (Labcyte) such that the starting concentration was 50 μM, with a 1:2-fold dilution series. All wells were backfilled with DMSO to […] such that this remained constant (0.5 % DMSO). The positive growth control was 0.5 % DMSO and the negative growth control was 10 μM Bortezomib. HepG2 cells were seeded with 1000 cells in 50 μL DMEM with 10 % FCS into each well of the assay plates using a Multidrop Combi dispenser (Thermo Scientific). Plates were incubated at 37 °C and 5 % CO2 for 48 h. Cytotoxicity was determined using Cell Titer Glo (Promega) and calculated as a percentage using DMSO as the positive growth control and 10 μM Bortezomib as a negative growth control. EC50 values were calculated by Dotmatics 5.3 and Spotfire 7.11.1 software using a nonlinear regression four-parameter fit analysis. The equation used is sigmoidal dose response (variable slope), Y = bottom + (top − bottom)/(1 + 10((logEC50 − X) × Hill Slope)).

Setting [3] is: LDH activity of P. falciparum 3D7 parasites over 72 h, read-out: Pf 3D7 EC50 (SD).
Where [4] appears, read: read-out: Pf 3D7 EC50 (SD), LDH activity of P. falciparum 3D7 parasites over 72 h.

Turning to `O=C(NC1CC1)c1ccc(CNCc2ccccc2)cc1` [Compound 18, 4-((Benzylamino)methyl)-N-cyclopropylbenzamide], the EC50 (usually the concentration giving half of the maximal effect) in data set [1] (setting [3]) was more than 10 µM. For `CN(Cc1ccccc1)Cc1ccc(C(=O)NC2CC2)cc1` [Compound 19, 4-((Benzyl(methyl)amino)methyl)-N-cyclopropylbenzamide], the EC50 in data set [1] (setting [3]) was determined as 2.6 µM. For the same molecule, the “fold decrease in Pf 3D7 activity relative to 17” value in data set [1] amounted to 20 fold. The half-maximal cytotoxic concentration (CC50) (as a rule, the concentration giving 50% cytotoxicity) at 48 h in data set [2] was more than 40 µM. Taken in the same sequence, the figures for `CCN(Cc1ccccc1)Cc1ccc(C(=O)NC2CC2)cc1` [Compound 20, 4-((Benzyl(ethyl)amino)methyl)-N-cyclopropylbenzamide] were 0.7 µM, 4 fold and more than 40 µM. In the case of `CC(C)(C)N(Cc1ccccc1)Cc1ccc(C(=O)NC2CC2)cc1` [Compound 23, 4-((Benzyl(tert-butyl)amino)methyl)-N-cyclopropylbenzamide], the EC50 in data set [1] (setting [3]) stood at 0.63 µM. In addition, in data set [2], the CC50 at 48 h was more than 40 µM. Taken in the same sequence, the figures for `CCC(C)N(Cc1ccccc1)Cc1ccc(C(=O)NC2CC2)cc1` (centres unmarked) [Compound 24, 4-((Benzyl(sec-butyl)amino)methyl)-N-cyclopropylbenzamide] were 0.21 µM and more than 40 µM. In data set [2], `O=C(NC1CC1)c1ccc(CN(Cc2ccccc2)Cc2ccccc2)cc1` [Compound 27, N-Cyclopropyl-4-((dibenzylamino)methyl)benzamide] registered a CC50 at 48 h of more than 40 µM.

As for `O=C(NC1CC1)c1cccc(CN(Cc2ccccc2)C2CC2)c1` [Compound 28, 3-((Benzyl(cyclopropyl)amino)methyl)-N-cyclopropylbenzamide], the EC50 in data set [1] (setting [3]) stood at 5.6 µM. For the same molecule, in data set [1], the “fold decrease in Pf 3D7 activity relative to 17” value is 40 fold. In addition, in data set [2], the half-maximal cytotoxic concentration (CC50) at 48 h was more than 40 µM. As to `NC(=O)c1ccc(CN(Cc2ccc(Cl)cc2Cl)C2CC2)cc1` [Compound 29], in data set [1] (setting [3]), the half-maximal effective concentration (EC50) is more than 10 µM. In the case of `CNC(=O)c1ccc(CN(Cc2ccc(Cl)cc2Cl)C2CC2)cc1` [Compound 30], the EC50 in data set [1] (setting [3]) amounted to 1.18 µM. Further, the CC50 at 48 h in data set [2] is more than 40 µM. Regarding `CCNC(=O)c1ccc(CN(Cc2ccc(Cl)cc2Cl)C2CC2)cc1` [Compound 31, 4-((Cyclopropyl(2,4-dichlorobenzyl)amino)methyl)-N-ethylbenzamide], in data set [1] (setting [3]), the EC50 is 0.31 µM. In data set [2], this molecule registered a half-maximal cytotoxic concentration (CC50) at 48 h of more than 40 µM. Turning to `CCCNC(=O)c1ccc(CN(Cc2ccc(Cl)cc2Cl)C2CC2)cc1` [Compound 32, 4-((Cyclopropyl(2,4-dichlorobenzyl)amino)methyl)-N-propylbenzamide], the EC50 in data set [1] (setting [3]) is 0.64 µM. In addition, in data set [2], the 50% cytotoxic concentration (CC50) at 48 h was more than 40 µM. Taken in the same sequence, the figures for `CC(C)NC(=O)c1ccc(CN(Cc2ccc(Cl)cc2Cl)C2CC2)cc1` [Compound 33] were 0.69 µM and more than 40 µM. As to `O=C(NCC(F)(F)F)c1ccc(CN(Cc2ccc(Cl)cc2Cl)C2CC2)cc1` [Compound 34, 4-((Cyclopropyl(2,4-dichlorobenzyl)amino)methyl)-N-(2,2,2-trifluoroethyl)benzamide], in data set [1] (setting [3]), the EC50 was more than 10 µM. For `CN(C)CCNC(=O)c1ccc(CN(Cc2ccc(Cl)cc2Cl)C2CC2)cc1` [Compound 35], the concentration for a half-maximal effect (EC50) in data set [1] (setting [3]) worked out at 7.6 µM. The cytotoxic concentration (CC50) at 48 h in data set [2] was found to be 9.3 µM. Consider `NCCNC(=O)c1ccc(CN(Cc2ccc(Cl)cc2Cl)C2CC2)cc1` [Compound 36, 2-(4-((Cyclopropyl(2,4-dichlorobenzyl)amino)methyl)benzamido)ethan-1-aminium 2,2,2-trifluoroacetate], for which the EC50 in data set [1] (setting [3]) was more than 10 µM. Consider `O=C(NCCO)c1ccc(CN(Cc2ccc(Cl)cc2Cl)C2CC2)cc1` [Compound 37, 4-((Cyclopropyl(2,4-dichlorobenzyl)amino)methyl)-N-(2-hydroxyethyl)benzamide], for which the EC50 in data set [1] (setting [3]) amounted to 2.4 µM. Further, the “fold loss in Pf 3D7 activity relative to W499 (2)” value in data set [1] is given as “approximately 25 fold”. The molecule further had a cytotoxic concentration (CC50) at 48 h in data set [2] of more than 40 µM. Taken in the same sequence, the figures for `O=C(NC1CCC1)c1ccc(CN(Cc2ccc(Cl)cc2Cl)C2CC2)cc1` [Compound 38] were 0.48 µM, 4 fold and more than 40 µM. For the molecule `O=C(NC1CCCC1)c1ccc(CN(Cc2ccc(Cl)cc2Cl)C2CC2)cc1` [Compound 39], the EC50 in data set [1] (setting [4]) was 1.2 µM. Besides, the “fold loss in Pf 3D7 activity relative to W499 (2)” value in data set [1] is given as 12 fold. This molecule also yielded a cytotoxic concentration (CC50) at 48 h in data set [2] of more than 40 µM. The molecule `O=C(Nc1ccccc1)c1ccc(CN(Cc2ccc(Cl)cc2Cl)C2CC2)cc1` [Compound 40] yielded a CC50 at 48 h in data set [2] of more than 40 µM. As to `O=C(NC1CC1)c1ccc(CN(Cc2ccccc2F)C2CC2)cc1` [Compound 42], the 50% effective concentration (EC50) in data set [1] (setting [3]) stood at 0.25 µM. In data set [2], the CC50 at 48 h was more than 40 µM.

As to `O=C(NC1CC1)c1ccc(CN(Cc2cccc(F)c2)C2CC2)cc1` [Compound 43], in data set [1] (setting [3]), the 50% effective concentration (EC50) came to 0.24 µM. Moreover, the 50% cytotoxic concentration (CC50) at 48 h in data set [2] was more than 40 µM.

With `O=C(NC1CC1)c1ccc(CN(Cc2ccc(F)cc2)C2CC2)cc1` [Compound 44], the EC50 in data set [1] (setting [3]) worked out at 0.22 µM. In addition, the CC50 at 48 h in data set [2] was more than 40 µM.

With `O=C(NC1CC1)c1ccc(CN(Cc2ccccc2Cl)C2CC2)cc1` [Compound 45, 4-(((2-Chlorobenzyl) (cyclopropyl)amino)methyl)-N-cyclopropylbenzamide], the concentration for a half-maximal effect (EC50) in data set [1] (setting [3]) was 0.29 µM. In data set [2], the cytotoxic concentration (CC50) at 48 h is more than 40 µM.

Regarding `O=C(NC1CC1)c1ccc(CN(Cc2cccc(Cl)c2)C2CC2)cc1` [Compound 46, 4-(((3-Chlorobenzyl) (cyclopropyl)amino)methyl)-N-cyclopropylbenzamide], the EC50 in data set [1] (setting [3]) was 0.34 µM. In data set [2], this molecule gave a CC50 at 48 h of more than 40 µM.

Regarding `O=C(NC1CC1)c1ccc(CN(Cc2ccc(Cl)cc2)C2CC2)cc1` [Compound 47, 4-(((4-Chlorobenzyl) (cyclopropyl)amino)methyl)-N-cyclopropylbenzamide], in data set [1] (setting [3]), the EC50 was 0.21 µM. The molecule also had a CC50 at 48 h in data set [2] of more than 40 µM.

For `Cc1ccccc1CN(Cc1ccc(C(=O)NC2CC2)cc1)C1CC1` [Compound 48], the EC50 in data set [1] (setting [3]) was 0.2 µM. Further, the CC50 at 48 h in data set [2] was more than 40 µM. Take `CC(=O)Nc1cccc(CN(Cc2ccc(C(=O)NC3CC3)cc2)C2CC2)c1` [Compound 66, 4-(((3-Acetamidobenzyl) (cyclopropyl)amino)methyl)-N-cyclopropylbenzamide]: the EC50 in data set [1] (setting [3]) was more than 10 µM.

As for `CC(=O)Nc1ccc(CN(Cc2ccc(C(=O)NC3CC3)cc2)C2CC2)cc1` [Compound 67, 4-(((4-Acetamidobenzyl) (cyclopropyl)amino)methyl)-N-cyclopropylbenzamide], the EC50 in data set [1] (setting [3]) is more than 10 µM. `O=C(NC1CC1)c1ccc(CN(Cc2cccnc2)C2CC2)cc1` [Compound 86]: the 50% effective concentration (EC50) in data set [1] (setting [3]) was more than 10 µM. As to `O=C(NC1CC1)c1ccc(CNC2CC2)cc1` [Compound 88, N-cyclopropyl-4-((cyclopropylamino)methyl)benzamide], the EC50 in data set [1] (setting [3]) is more than 10 µM.

For the molecule `CN(Cc1ccc(C(=O)NC2CC2)cc1)C1CC1` [Compound 89], in data set [1] (setting [3]), the EC50 was more than 10 µM. With `CC(C)CN(Cc1ccc(C(=O)NC2CC2)cc1)C1CC1` [Compound 92], the EC50 in data set [1] (setting [4]) is 0.54 µM. In data set [1], the “fold decrease in Pf 3D7 activity relative to 17” value is reported as “approximately 4 fold”.

`O=C(NC1CC1)c1ccc(CN(C(=O)c2ccccc2)C2CC2)cc1` [Compound 99, N-Cyclopropyl-N-(4-(cyclopropylcarbamoyl)benzyl)benzamide]: in data set [1] (setting [3]), the EC50 is more than 10 µM.

For `O=C(NC1CC1)c1ccc(C(=O)N(Cc2ccccc2)C2CC2)cc1` [Compound 100, N [4]-Benzyl-N^1,N [4]-dicyclopropyl-terephthalamide], the EC50 in data set [1] (setting [3]) is more than 10 µM. `O=C(NC1CC1)c1ncc(CN(Cc2ccccc2)C2CC2)s1` [Compound 106, 5-((Benzyl(cyclopropyl)amino)methyl)-N-cyclopropylthiazole-2-carboxamide]: in data set [1] (setting [3]), the concentration giving a half-maximal response (EC50) is more than 10 µM.
